Reference: US20220274983A1, “JAK KINASE INHIBITOR AND USE THEREOF” (JIANGSU CAREPHAR PHARMACEUTICAL CO., LTD., priority 2019, published 2022)

What was measured:
BaF3 cells = assay: Proliferation inhibition based on BaF3 cells (IL-3 medium, CTG); format: cell-based; details: Mus musculus, medium containing IL-3, read-out: IC50 (uM), proliferation inhibitory activity on BaF3 cells
Experimental: 1. Cell plating: cultured cells were collected with RPMI1640+10% FBS (containing IL-3) medium and counted for viable cells with Vi-Cell XR cell counter. The cell suspension was adjusted to an appropriate concentration with RPMI1640+10% FBS (containing IL-3) medium and then added to a 96-well cell culture plate. A certain amount of cell suspension was added to each well of the 96-well cell culture plate. The cells were cultured in corresponding incubators.
(§1) 2. Drug treatment: a series of test compound concentration (work solution-1) was prepared using DMSO with 3× gradient dilution, and then it was subjected to fold dilution with RPMI1640+10% FBS (containing IL-3) to obtain a work solution-2; Cisplatin's work solution-2 was prepared with RPMI1640+10% FBS (containing IL-3), and then 1-10 μL solution taken from the work solution-2 was added to the prepared cell wells containing medium. The cells were cultured in the corresponding incubators. An appropriate CTG solution was added to each well.
Cell Survival Rate Calculation
(§2) T is the luminescence reading of a drug treatment group, and C is the average luminescence reading of a solvent control group.

TYK2 = TYK2 (Homo sapiens, UniProt P29597); assay: JAK kinase inhibitory activity, HTRF biochemical assay
Experimental: (§3) The compounds of the above embodiments were applied to the detection and screening of JAK kinase inhibitory activity.
(§4) A corresponding volume of DMSO was added to each well of a first 96-well plate. 20-30 μL of 100-200 μM stock solution of different test compounds were added to each well. The mixture was shaken and mixed for 3 min. All of the compounds were subjected to 3× serial dilution. 60-80 μL Kinase buffer was added to each well of a second 96-well plate, and 1-2 μL of the solution taken from each well of the first 96-well plate was added to the corresponding well of the second 96-well plate. The mixture was shaken and mixed for 3 min. 5 μL of compound dilution taken from each well of the second compound dilution plate was transferred to the corresponding well of a 384-well test plate. 1-2 μL TK Substrate-biotin was added to each well of the test plate. 1-2 μL of enzyme mixture was added to each well. At the same time, a blank well without enzyme was set. 1-2 μL of ATP solution was added to each well, the plate was sealed and reacted at room temperature. The reaction time was as follows: JAK1: 2 h, JAK2: 30 min, JAK3: 30 min, and TYK2: 50 min. 3-5 μL of Streptavidin-XL665 and 3-5 μL of TK Antibody-cryptate were added to each well, the plate was sealed and allowed to stand at room temperature for 30 min to complete the reaction.
(§5) The percentage of inhibition was calculated based on the following formula:
(§6) Inhibition %=[(Ratiomax−Ratiocompound)/(Ratiomax−Ratiomin)]×100%
(§7) Ratiocompound is the HTRF ratio at a given compound concentration, Ratiomin is the HTRF ratio added to the blank well, and Ratiomax is the HTRF ratio without adding the compound. GraphPad Prism 5.0 software was used to plot a sigmoid dose-inhibition rate curve with a non-linear regression model and calculate the IC50 value.

JAK1 = JAK1 (Homo sapiens, UniProt P23458); assay: as above
Experimental: as §3, §4, §5, §6, §7

JAK3 = molecular target: T1, JAK3 (Homo sapiens, UniProt P52333); assay: as above
T1 sequence (P52333 1-1124): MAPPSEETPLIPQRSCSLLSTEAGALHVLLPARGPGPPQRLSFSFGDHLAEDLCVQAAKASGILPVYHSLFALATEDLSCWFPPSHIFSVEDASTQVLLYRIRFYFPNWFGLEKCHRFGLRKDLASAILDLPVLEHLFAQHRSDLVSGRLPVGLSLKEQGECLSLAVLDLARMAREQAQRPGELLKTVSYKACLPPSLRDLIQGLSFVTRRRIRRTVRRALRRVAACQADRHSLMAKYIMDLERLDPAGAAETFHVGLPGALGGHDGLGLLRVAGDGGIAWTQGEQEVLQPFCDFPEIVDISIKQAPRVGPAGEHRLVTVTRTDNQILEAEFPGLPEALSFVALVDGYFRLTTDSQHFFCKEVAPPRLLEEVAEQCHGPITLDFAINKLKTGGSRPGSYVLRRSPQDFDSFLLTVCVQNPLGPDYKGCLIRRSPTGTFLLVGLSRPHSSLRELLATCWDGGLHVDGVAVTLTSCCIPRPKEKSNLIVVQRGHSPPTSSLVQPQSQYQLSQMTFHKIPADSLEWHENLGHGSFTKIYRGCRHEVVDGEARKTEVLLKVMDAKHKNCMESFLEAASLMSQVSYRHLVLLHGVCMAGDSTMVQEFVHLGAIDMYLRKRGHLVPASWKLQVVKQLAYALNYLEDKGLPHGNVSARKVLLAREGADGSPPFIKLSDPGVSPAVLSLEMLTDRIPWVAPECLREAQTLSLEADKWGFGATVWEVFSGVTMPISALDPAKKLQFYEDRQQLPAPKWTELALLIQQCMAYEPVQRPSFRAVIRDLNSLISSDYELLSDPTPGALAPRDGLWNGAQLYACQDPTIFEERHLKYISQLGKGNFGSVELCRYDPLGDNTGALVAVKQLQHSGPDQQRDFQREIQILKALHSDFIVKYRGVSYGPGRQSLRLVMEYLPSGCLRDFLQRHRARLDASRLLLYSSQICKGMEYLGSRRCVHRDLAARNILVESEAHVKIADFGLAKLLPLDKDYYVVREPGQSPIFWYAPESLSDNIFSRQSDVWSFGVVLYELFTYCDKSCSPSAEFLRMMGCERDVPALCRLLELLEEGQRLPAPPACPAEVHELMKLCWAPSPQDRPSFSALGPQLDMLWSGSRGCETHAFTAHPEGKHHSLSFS
Experimental: as §3, §4, §5, §6, §7

JAK2 = JAK2 (Homo sapiens, UniProt O60674); assay: as above
Experimental: as §3, §4, §5, §6, §7

THP1 cells = assay: Proliferation inhibition based on THP1 cells (IL-4 stimulation, CTG); format: cell-based; details: Homo sapiens, THP-1, read-out: IC50 (uM), proliferation inhibitory activity on THP1 cells
Experimental: 1. Cell plating: cultured cells were collected and counted for viable cells with Vi-Cell XR cell counter. The cell suspension was adjusted to an appropriate concentration with the medium and then added to a 96-well cell culture plate. 80 μL of the cell suspension was added to each well of the 96-well cell culture plate. The cell plating density depended on the growth rate of the cells. The cells were cultured in corresponding incubators.
as §1, with “treatment and IL-4 stimulation: firstly,” for “treatment:”, “FBS” for “FBS (containing IL-3)”, “FBS,” for “FBS (containing IL-3),”, “incubators. After incubation, 1-10 μL of IL-4 medium was added to each well and continued to culture.” for “incubators.”
Cell Survial Rate Calculation
as §2

Sequence of TYK2 (P29597 whole entry, species assumed): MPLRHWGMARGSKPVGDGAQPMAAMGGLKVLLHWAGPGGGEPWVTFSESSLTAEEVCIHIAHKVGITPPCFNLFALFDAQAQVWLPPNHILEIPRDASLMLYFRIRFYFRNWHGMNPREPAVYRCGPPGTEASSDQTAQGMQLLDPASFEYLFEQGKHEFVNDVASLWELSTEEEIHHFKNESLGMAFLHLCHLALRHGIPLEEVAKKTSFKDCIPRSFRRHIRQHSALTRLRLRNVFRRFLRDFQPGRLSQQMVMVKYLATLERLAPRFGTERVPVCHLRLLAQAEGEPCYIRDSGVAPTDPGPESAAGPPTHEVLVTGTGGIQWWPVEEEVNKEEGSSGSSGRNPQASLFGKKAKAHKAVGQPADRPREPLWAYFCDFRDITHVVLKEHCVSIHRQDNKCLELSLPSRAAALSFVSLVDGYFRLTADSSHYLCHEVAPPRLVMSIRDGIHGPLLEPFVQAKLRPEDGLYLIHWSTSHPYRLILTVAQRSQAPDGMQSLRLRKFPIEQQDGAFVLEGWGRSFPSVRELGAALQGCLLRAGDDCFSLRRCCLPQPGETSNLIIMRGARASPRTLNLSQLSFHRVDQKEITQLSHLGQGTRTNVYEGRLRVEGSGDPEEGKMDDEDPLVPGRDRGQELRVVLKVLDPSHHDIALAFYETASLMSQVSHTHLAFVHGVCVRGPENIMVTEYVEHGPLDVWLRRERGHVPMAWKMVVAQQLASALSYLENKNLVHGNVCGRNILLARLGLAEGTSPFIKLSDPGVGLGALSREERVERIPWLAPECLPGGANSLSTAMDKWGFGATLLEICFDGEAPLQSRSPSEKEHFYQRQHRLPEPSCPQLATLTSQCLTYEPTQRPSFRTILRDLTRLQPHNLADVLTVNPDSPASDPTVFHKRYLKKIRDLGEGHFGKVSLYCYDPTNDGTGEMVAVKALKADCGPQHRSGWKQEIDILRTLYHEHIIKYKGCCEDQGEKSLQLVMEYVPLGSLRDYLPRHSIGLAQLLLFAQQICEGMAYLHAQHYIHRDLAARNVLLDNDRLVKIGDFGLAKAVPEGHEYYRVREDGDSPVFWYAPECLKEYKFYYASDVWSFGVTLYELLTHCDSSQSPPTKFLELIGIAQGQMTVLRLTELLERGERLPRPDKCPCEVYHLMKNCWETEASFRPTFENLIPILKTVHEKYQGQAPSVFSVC
Sequence of JAK1 (P23458 whole entry, species assumed): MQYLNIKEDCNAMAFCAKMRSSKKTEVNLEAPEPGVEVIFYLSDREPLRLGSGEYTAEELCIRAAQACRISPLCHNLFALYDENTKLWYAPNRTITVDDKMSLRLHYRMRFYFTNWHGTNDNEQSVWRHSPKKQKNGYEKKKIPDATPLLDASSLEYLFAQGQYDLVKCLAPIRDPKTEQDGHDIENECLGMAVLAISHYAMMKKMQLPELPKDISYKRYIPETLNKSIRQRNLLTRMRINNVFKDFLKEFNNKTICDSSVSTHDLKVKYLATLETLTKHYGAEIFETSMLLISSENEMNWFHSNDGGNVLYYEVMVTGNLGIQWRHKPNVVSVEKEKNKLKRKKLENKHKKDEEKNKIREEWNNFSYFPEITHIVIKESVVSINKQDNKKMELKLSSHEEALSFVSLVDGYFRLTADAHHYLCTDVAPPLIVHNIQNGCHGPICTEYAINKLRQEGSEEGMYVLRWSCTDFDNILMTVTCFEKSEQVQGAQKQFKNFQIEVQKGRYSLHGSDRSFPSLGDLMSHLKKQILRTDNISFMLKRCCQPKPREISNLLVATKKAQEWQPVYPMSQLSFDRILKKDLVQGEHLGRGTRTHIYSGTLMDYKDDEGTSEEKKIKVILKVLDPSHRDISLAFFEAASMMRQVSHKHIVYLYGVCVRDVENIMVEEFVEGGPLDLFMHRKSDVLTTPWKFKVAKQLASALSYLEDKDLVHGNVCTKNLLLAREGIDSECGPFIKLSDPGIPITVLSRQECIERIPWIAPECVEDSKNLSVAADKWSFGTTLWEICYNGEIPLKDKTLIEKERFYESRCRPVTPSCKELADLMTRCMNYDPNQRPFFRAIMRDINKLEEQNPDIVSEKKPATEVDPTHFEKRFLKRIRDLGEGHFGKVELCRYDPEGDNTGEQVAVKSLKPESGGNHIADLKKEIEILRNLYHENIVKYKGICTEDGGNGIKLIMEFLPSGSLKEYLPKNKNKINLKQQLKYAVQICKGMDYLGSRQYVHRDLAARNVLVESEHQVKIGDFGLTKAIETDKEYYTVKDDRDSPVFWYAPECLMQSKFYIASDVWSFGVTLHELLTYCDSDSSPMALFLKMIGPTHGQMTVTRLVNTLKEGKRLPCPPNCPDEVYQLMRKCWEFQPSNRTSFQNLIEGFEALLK
Sequence of JAK2 (O60674 whole entry, species assumed): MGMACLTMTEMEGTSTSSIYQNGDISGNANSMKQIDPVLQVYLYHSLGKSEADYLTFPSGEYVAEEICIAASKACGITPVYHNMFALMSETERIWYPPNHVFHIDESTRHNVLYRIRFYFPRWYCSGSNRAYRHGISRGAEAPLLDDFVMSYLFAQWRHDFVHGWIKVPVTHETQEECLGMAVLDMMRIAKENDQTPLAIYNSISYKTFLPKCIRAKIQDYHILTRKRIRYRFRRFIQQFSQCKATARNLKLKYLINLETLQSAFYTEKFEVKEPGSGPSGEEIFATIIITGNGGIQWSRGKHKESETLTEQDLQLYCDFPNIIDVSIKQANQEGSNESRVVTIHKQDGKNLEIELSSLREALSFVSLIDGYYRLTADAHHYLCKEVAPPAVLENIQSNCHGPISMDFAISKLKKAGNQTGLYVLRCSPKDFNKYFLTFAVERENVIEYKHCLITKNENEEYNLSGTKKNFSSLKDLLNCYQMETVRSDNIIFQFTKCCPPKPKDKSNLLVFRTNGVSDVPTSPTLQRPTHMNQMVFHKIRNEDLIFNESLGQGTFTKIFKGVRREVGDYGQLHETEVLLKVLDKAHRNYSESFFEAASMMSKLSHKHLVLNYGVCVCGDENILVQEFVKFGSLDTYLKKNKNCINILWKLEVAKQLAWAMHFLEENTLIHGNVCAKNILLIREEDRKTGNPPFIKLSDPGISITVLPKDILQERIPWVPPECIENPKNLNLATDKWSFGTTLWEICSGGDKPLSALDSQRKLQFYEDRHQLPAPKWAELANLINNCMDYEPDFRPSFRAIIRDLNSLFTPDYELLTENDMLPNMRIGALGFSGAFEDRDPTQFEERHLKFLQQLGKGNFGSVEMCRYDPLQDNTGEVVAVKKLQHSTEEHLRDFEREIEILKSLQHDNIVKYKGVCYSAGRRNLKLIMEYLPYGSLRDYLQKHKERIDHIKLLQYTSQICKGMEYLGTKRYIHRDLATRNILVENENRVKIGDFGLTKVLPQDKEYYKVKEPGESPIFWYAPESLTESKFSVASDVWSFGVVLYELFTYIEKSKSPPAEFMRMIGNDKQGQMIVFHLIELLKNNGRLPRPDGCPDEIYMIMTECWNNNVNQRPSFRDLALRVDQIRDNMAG

Question: How did the IC50 (BaF3 cells) turn out when `O=C(Nc1cn2c(-c3ccc(CN4CCS(=O)(=O)CC4)s3)cccc2n1)[C@H]1C[C@@H]1F` (relative stereo) [EXP-3, trans-N-[5-[5-[(1,1-dioxo-1,4-thiazin-4-yl)methyl]-2-thiophene]imidazo[1,2-a]pyridin-2-yl]-2-fluoro-cyclopropylcarboxamide] was run?
Answer: The IC50 was less than 5 µM.

Question: What about the IC50 (TYK2) of the same compound?
Answer: The IC50 was greater than 500 nM.

Question: What about the IC50 (JAK1) of the same compound?
Answer: Its IC50 is 10 to 30 nM.

Question: What about the IC50 (JAK3) of the same compound?
Answer: Its IC50 is greater than 500 nM.

Question: What about the IC50 (JAK2) of the same compound?
Answer: Its IC50 is 30 to 50 nM.

Question: What about the IC50 (THP1 cells) of the same compound?
Answer: The IC50 was less than 5 µM.

Question: Which results are given for `O=C(Nc1nc2cccc(-c3ccc(CN4CCS(=O)(=O)CC4)s3)n2n1)C1CC1` [EXP-1]?
Answer: IC50 (BaF3 cells): < 5 µM; IC50 (TYK2): > 500 nM; IC50 (JAK1): 30 to 50 nM; IC50 (JAK3): 50 to 500 nM; IC50 (JAK2): 30 to 50 nM; IC50 (THP1 cells): < 5 µM
